Assay results reported in PubChem BioAssay AID1919008 (Molecular Pharmacology Branch, DTP, NCI, 2023).

Tested on: DMS-114 complex spheroids with HUVEC/MSC, growth % test/control
Assay: Anticancer human tumor DMS-114 cell line growth inhibition [AhR];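 further: spheroids exposed to agents for 7 days before readout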;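 on viability, T/C: 100% = DMSO vehicle control wells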
Settings: for IC50: curve of first compound; for viability, T/C: stronger effect = lower value
Procedure, shortened: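 Agents were dosed in half-log steps down from roughly clinical Cmax, or from 10 microM where Cmax was unknown, alone and with AhR antagonists. Read-out: percent test/control growth of tumor spheroids containing HUVEC and MSC stromal cells.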

[1] = second compound 0.1 µM, first compound 0.00949 µM
[2] = second compound 0.1 µM, first compound 0.03 µM
[3] = second compound 0.1 µM, first compound 0.0949 µM
[4] = second compound 0.1 µM, first compound 0.3 µM
[5] = second compound 0.1 µM, first compound 0.949 µM
[6] = second compound 0.1 µM, first compound 3 µM
[7] = second compound 0.316 µM, first compound 0.00949 µM
[8] = second compound 0.316 µM, first compound 0.03 µM
[9] = second compound 0.316 µM, first compound 0.0949 µM
[10] = second compound 0.316 µM, first compound 0.3 µM
[11] = second compound 0.316 µM, first compound 0.949 µM
[12] = second compound 0.316 µM, first compound 3 µM
[13] = second compound 1 µM, first compound 0.00949 µM
[14] = second compound 1 µM, first compound 0.03 µM
[15] = second compound 1 µM, first compound 0.0949 µM
[16] = second compound 1 µM, first compound 0.3 µM
[17] = second compound 1 µM, first compound 0.949 µM
[18] = second compound 1 µM, first compound 3 µM
[19] = second compound 3.16 µM, first compound 0.00949 µM
[20] = second compound 3.16 µM, first compound 0.03 µM
[21] = second compound 3.16 µM, first compound 0.0949 µM
[22] = second compound 3.16 µM, first compound 0.3 µM
[23] = second compound 3.16 µM, first compound 0.949 µM
[24] = second compound 3.16 µM, first compound 3 µM
[25] = second compound 10 µM, first compound 0.00949 µM
[26] = second compound 10 µM, first compound 0.03 µM
[27] = second compound 10 µM, first compound 0.0949 µM
[28] = second compound 10 µM, first compound 0.3 µM
[29] = second compound 10 µM, first compound 0.949 µM
[30] = second compound 10 µM, first compound 3 µM

| Compound | IC50 (second compound 0.1 µM) [nM] | IC50 (second compound 0.316 µM) [nM] | IC50 (second compound 1 µM) [nM] | IC50 (second compound 3.16 µM) [nM] | IC50 (second compound 10 µM) [nM] | viability, T/C [1] [%] | viability, T/C [2] [%] | viability, T/C [3] [%] | viability, T/C [4] [%] | viability, T/C [7] [%] | viability, T/C [8] [%] | viability, T/C [9] [%] | viability, T/C [10] [%] | viability, T/C [13] [%] | viability, T/C [14] [%] | viability, T/C [15] [%] | viability, T/C [16] [%] | viability, T/C [19] [%] | viability, T/C [20] [%] | viability, T/C [21] [%] | further results |
| --- | --- | --- | --- | --- | --- | --- | --- | --- | --- | --- | --- | --- | --- | --- | --- | --- | --- | --- | --- | --- | --- |
| CCN(c1cc(-c2ccc(CN3CCOCC3)cc2)cc(C(=O)NCc2c(C)cc(C)[nH]c2=O)c1C)C1CCOCC1 + CC(CO)NC(=O)c1cc(-c2ccc(Cl)cc2)nn(-c2cnn(C)c2)c1=O | > 3000 | > 3000 | > 3000 | > 3000 | > 3000 | 95.4 | 86.3 | 103 | 100 | 110 | 107 | 104 | 102 | 98.3 | 106 | 109 | 104 | 118 | 96.5 | 111 | viability, T/C [5]: 98%; viability, T/C [6]: 92.5%; viability, T/C [11]: 92.8%; viability, T/C [12]: 93%; viability, T/C [17]: 95.7%; viability, T/C [18]: 101%; viability, T/C [22]: 104%; viability, T/C [23]: 93.3%; viability, T/C [24]: 91%; viability, T/C [25]: 117%; viability, T/C [26]: 98.1%; viability, T/C [27]: 117%; viability, T/C [28]: 100%; viability, T/C [29]: 92.4%; viability, T/C [30]: 86.5% |
| Nc1ncn(C2CC(O)C(CO)S2)c(=O)n1 (stereo not given) + CC(CO)NC(=O)c1cc(-c2ccc(Cl)cc2)nn(-c2cnn(C)c2)c1=O | > 300 | > 300 | > 300 | > 300 | > 300 | 108 | 115 | 85.3 | 59.5 | 92.7 | 89.5 | 79.9 | 58.3 | 96.9 | 102 | 80 | 55.7 | 115 | 118 | 66.2 | viability, T/C (second compound 0.1 µM, first compound 0.000949 µM): 117%; viability, T/C (second compound 0.1 µM, first compound 0.003 µM): 101%; viability, T/C (second compound 0.316 µM, first compound 0.000949 µM): 111%; viability, T/C (second compound 0.316 µM, first compound 0.003 µM): 113%; viability, T/C (second compound 1 µM, first compound 0.000949 µM): 107%; viability, T/C (second compound 1 µM, first compound 0.003 µM): 107%; viability, T/C (second compound 3.16 µM, first compound 0.000949 µM): 112%; viability, T/C (second compound 3.16 µM, first compound 0.003 µM): 107%; viability, T/C [22]: 51.9%; viability, T/C (second compound 10 µM, first compound 0.000949 µM): 126%; viability, T/C (second compound 10 µM, first compound 0.003 µM): 108%; viability, T/C [25]: 108%; viability, T/C [26]: 103%; viability, T/C [27]: 87.8%; viability, T/C [28]: 58% |
| O=C(C=Cn1cnc(-c2cc(C(F)(F)F)cc(C(F)(F)F)c2)n1)NNc1cnccn1 + CC(CO)NC(=O)c1cc(-c2ccc(Cl)cc2)nn(-c2cnn(C)c2)c1=O | 183 | 156 | 169 | 180 | 209 | 103 | 99.2 | 63.3 | 38.2 | 97.8 | 93.9 | 57.2 | 36.1 | 85.8 | 97.2 | 59.4 | 37 | 97.1 | 121 | 54.1 | viability, T/C [5]: 18.7%; viability, T/C [6]: 7.72%; viability, T/C [11]: 16.8%; viability, T/C [12]: 7.29%; viability, T/C [17]: 16.4%; viability, T/C [18]: 8.32%; viability, T/C [22]: 43.9%; viability, T/C [23]: 17.7%; viability, T/C [24]: 6.66%; viability, T/C [25]: 95.2%; viability, T/C [26]: 96.4%; viability, T/C [27]: 64.2%; viability, T/C [28]: 44%; viability, T/C [29]: 18.4%; viability, T/C [30]: 9.22% |
